Assay results as given in patent publication US11912723B2, “KRAS modulators and uses thereof” (Quanta Therapeutics, Inc., priority 2022, dated 2024).

Legend:
[1] = tested on: AGS (KRAS G12D) cells, phospho-ERK; experiment: pERK In Cell Western (ICW) assay (Method B); format: cell-based; conditions: 3 hours
Method in brief: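 AGS cells seeded at 5,000/well, grown overnight, then treated 3 h at 37 °C with ½-log 10-point dilutions (top 10 μM). Fixed cells stained for phospho-ERK, normalized to DRAQ5 DNA signal and to DMSO control; IC50 from 4-parameter variable-slope fit.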

[2] = biological target: T1, GST-tagged KRAS G12D (2-169) (Homo sapiens, UniProt P01116, G12D); experiment: Nucleotide exchange assay (NEA), HTRF of SOS-mediated GTP-DY-647P1 binding; format: biochemical; conditions: 5 nM GST-KRAS G12D, 20 nM SOScat, 150 nM GTP; compound 1 h at RT
T1 construct: GST-tagged KRAS^G12D (2-169, Reaction Biology, MSC-11-539); purchased Reaction Biology MSC-11-539 (KRAS G12D); MSC-11-502 (SOS1cat)
Method in brief: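 After 1 h RT preincubation of compound with KRAS, SOS1cat (20 nM final) and fluorescent GTP analog (150 nM) were added to 5 nM KRAS; HTRF (anti-GST Tb donor) followed at RT for up to 90 min. % inhibition relative to DMSO and no-SOS1 blank, 4-parameter curve fit.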

T1 sequence (P01116 2-169 isoform P01116-2 G12D): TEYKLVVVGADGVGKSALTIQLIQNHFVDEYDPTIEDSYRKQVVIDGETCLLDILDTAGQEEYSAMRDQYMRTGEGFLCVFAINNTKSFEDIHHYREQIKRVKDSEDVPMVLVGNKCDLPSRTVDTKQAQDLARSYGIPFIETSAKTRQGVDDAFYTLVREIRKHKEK

Row | SMILES | IC50 ([1]; Homo sapiens) [µM] | IC50 [2] [nM] | IC50 [1] [µM]
1 | CN1Cc2c(nc(OC[C@@]34CCCN3C[C@H](F)C4)nc2N2CCCn3nc(-c4nnnn4C)c(Cl)c3C2)C[C@]12CCCc1ccccc12 [Compound 99, (7S)-4-[3-chloro-2-(1-methyltetrazol-5-yl)-4,6,7,8-tetrahydropyrazolo[1,5-a][1,4]diazepin-5-yl]-2-[[(2R,8S)-2-fluoro-1,2,3,5,6,7-hexahydropyrrolizin-8-yl]methoxy]-6-methyl-spiro[5,8-dihydropyrido[4,3-d]pyrimidine-7,1′-tetralin]] | 0.1 to 1 | < 10 | –
2 | CN(C)C(=O)c1nn2c(c1Cl)CN(c1nc(OC[C@@]34CCCN3C[C@H](F)C4)nc3c1CN(C)[C@@]1(CCc4cccc(O)c41)C3)CCC2 [Compound 96, 3-chloro-5-[(7S)-2-[[(2R,8S)-2-fluoro-1,2,3,5,6,7-hexahydropyrrolizin-8-yl]methoxy]-7′-hydroxy-6-methyl-spiro[5,8-dihydropyrido[4,3-d]pyrimidine-7,1′-indane]-4-yl]-N,N-dimethyl-4,6,7,8-tetrahydropyrazolo[1,5-a][1,4]diazepine-2-carboxamide] | 0.01 to 0.1 | < 10 | –
3 | CN(C)C(=O)c1cc2n(n1)CCCN(c1nc(OC[C@@]34CCCN3C[C@H](F)C4)nc3c1CN(C)[C@@]1(CCCc4ccccc41)C3)C2 [Compound 72, 5-[(7S)-2-[[(2R,8S)-2-fluoro-1,2,3,5,6,7-hexahydropyrrolizin-8-yl]methoxy]-6-methyl-spiro[5,8-dihydropyrido[4,3-d]pyrimidine-7,1′-tetralin]-4-yl]-N,N-dimethyl-4,6,7,8-tetrahydropyrazolo[1,5-a][1,4]diazepine-2-carboxamide] | 0.1 to 1 | < 10 | –
4 | CN(C)CC1(COc2nc3c(c(N4CCCn5nc(C(=O)N(C)C)c(Cl)c5C4)n2)CN(C)[C@@]2(CCCc4ccccc42)C3)CC1(F)F (stereo partly drawn) [Compound 97, 3-chloro-5-[(7S)-2-[[1-[(dimethylamino)methyl]-2,2-difluoro-cyclopropyl]methoxy]-6-methyl-spiro[5,8-dihydropyrido[4,3-d]pyrimidine-7,1′-tetralin]-4-yl]-N,N-dimethyl-4,6,7,8-tetrahydropyrazolo[1,5-a][1,4]diazepine-2-carboxamide] | 1 to 10 | < 10 | –
5 | Cc1c(C(=O)N(C)C)nn2c1CN(c1nc(OC[C@@]34CCCN3C[C@H](F)C4)nc3c1CO[C@@]1(CCc4c(Cl)cccc41)C3)CCC2 [Compound 42, 5-[(7S)-4′-chloro-2-[[(2R,8S)-2-fluoro-1,2,3,5,6,7-hexahydropyrrolizin-8-yl]methoxy]spiro[5,8-dihydropyrano[4,3-d]pyrimidine-7,1′-indane]-4-yl]-N,N,3-trimethyl-4,6,7,8-tetrahydropyrazolo[1,5-a][1,4]diazepine-2-carboxamide] | 0.1 to 1 | < 10 | –
6 | OC1CCCN(c2nc(OC[C@@]34CCCN3C[C@H](F)C4)nc3c2COC2(CCCc4c(Cl)cccc42)C3)CC1 (stereo partly drawn) [Compound 15, 1-[5′-chloro-2-[[(2R,8S)-2-fluoro-1,2,3,5,6,7-hexahydropyrrolizin-8-yl]methoxy]spiro[5,8-dihydropyrano[4,3-d]pyrimidine-7,1′-tetralin]-4-yl]azepan-4-ol] | > 10 | 1000 to 20000 | –
7 | F[C@H]1CN2CCC[C@@]2(COc2nc3c(c(N4C[C@H]5CC[C@@H](C4)N5)n2)COC2(CCCc4c(Br)cccc42)C3)C1 (stereo partly drawn) [Compound 10, 5′-bromo-4-(3,8-diazabicyclo[3.2.1]octan-3-yl)-2-[[(2R,8S)-2-fluoro-1,2,3,5,6,7-hexahydropyrrolizin-8-yl]methoxy]spiro[5,8-dihydropyrano[4,3-d]pyrimidine-7,1′-tetralin]] | > 10 | 10 to 100 | –
8 | F[C@H]1CN2CCC[C@@]2(COc2nc3c(c(N4CCC=CCC4)n2)COC2(CCc4c(Cl)cccc42)C3)C1 (stereo partly drawn) [Compound 18, 4′-chloro-2-[[(2R,8S)-2-fluoro-1,2,3,5,6,7-hexahydropyrrolizin-8-yl]methoxy]-4-(2,3,6,7-tetrahydroazepin-1-yl)spiro[5,8-dihydropyrano[4,3-d]pyrimidine-7,1′-indane]] | > 10 | > 20000 | –
9 | Oc1ccc2c(c1)C1(CCC2)Cc2nc(OC[C@@]34CCCN3C[C@H](F)C4)nc(N3CCCCCC3)c2CO1 (single isomer, unassigned) [Compound 8] | – | 100 to 1000 | > 10
10 | N#CC1CCCN(c2nc(OC[C@@]34CCCN3C[C@H](F)C4)nc3c2COC2(CCc4c(Cl)cccc42)C3)CC1 (stereo partly drawn) [Compound 16, 1-(4-chloro-2′-(((2R,7aS)-2-fluorotetrahydro-1H-pyrrolizin-7a(5H)-yl)methoxy)-2,3,5′,8′-tetrahydrospiro[indene-1,7′-pyrano[4,3-d]pyrimidin]-4′-yl)azepane-4-carbonitrile] | > 10 | 1000 to 20000 | –
11 | OC1CCCN(c2nc(OC[C@@]34CCCN3C[C@H](F)C4)nc3c2COC2(CCc4c(Cl)cccc42)C3)CC1 (mixture of isomers) [Compound 6, 1-[4′-chloro-2-[[rac-(2R,8S)-2-fluoro-1,2,3,5,6,7-hexahydropyrrolizin-8-yl]methoxy]spiro[5,8-dihydropyrano[4,3-d]pyrimidine-7,1′-indane]-4-yl]azepan-4-ol] | > 10 | 1000 to 20000 | –
12 | O=C(c1nn2c(c1Cl)CN(c1nc(OC[C@@]34CCCN3C[C@H](F)C4)nc3c1CO[C@@]1(CCc4c(Cl)cccc41)C3)CCC2)N1CCOCC1 [Compound 45, [3-chloro-5-[(7S)-4′-chloro-2-[[(2R,8S)-2-fluoro-1,2,3,5,6,7-hexahydropyrrolizin-8-yl]methoxy]spiro[5,8-dihydropyrano[4,3-d]pyrimidine-7,1′-indane]-4-yl]-4,6,7,8-tetrahydropyrazolo[1,5-a][1,4]diazepin-2-yl]-morpholino-methanone] | 0.1 to 1 | < 10 | –
13 | N#CNC1CCCN(c2nc(OC[C@@]34CCCN3C[C@H](F)C4)nc3c2COC2(CCc4c(Cl)cccc42)C3)C1 (stereo partly drawn) [Compound 29, [1-[4′-chloro-2-[[(2R,8S)-2-fluoro-1,2,3,5,6,7-hexahydropyrrolizin-8-yl]methoxy]spiro[5,8-dihydropyrano[4,3-d]pyrimidine-7,1′-indane]-4-yl]-3-piperidyl]cyanamide] | 1 to 10 | 100 to 1000 | –
14 | CN(C)C(=O)c1nn2c(c1Cl)CN(c1nc(OC[C@@]34CCCN3C[C@H](F)C4)nc3c1CN(C)[C@@]1(CCc4ccccc41)C3)CCC2 [Compound 53, 3-chloro-5-[(7S)-2-[[(2R,8S)-2-fluoro-1,2,3,5,6,7-hexahydropyrrolizin-8-yl]methoxy]-6-methyl-spiro[5,8-dihydropyrido[4,3-d]pyrimidine-7,1′-indane]-4-yl]-N,N-dimethyl-4,6,7,8-tetrahydropyrazolo[1,5-a][1,4]diazepine-2-carboxamide] | 0.01 to 0.1 | < 10 | –
15 | CN1Cc2c(nc(OC[C@@]34CCCN3C[C@H](F)C4)nc2N2CCCn3nc(N)c(Cl)c3C2)C[C@]12CCCc1ccccc12 [Compound 79, 3-chloro-5-[(7S)-2-[[(2R,8S)-2-fluoro-1,2,3,5,6,7-hexahydropyrrolizin-8-yl]methoxy]-6-methyl-spiro[5,8-dihydropyrido[4,3-d]pyrimidine-7,1′-tetralin]-4-yl]-4,6,7,8-tetrahydropyrazolo[1,5-a][1,4]diazepin-2-amine] | 1 to 10 | < 10 | –
16 | CN1Cc2c(nc(OC[C@@]34CCCN3C[C@H](F)C4)nc2N2C[C@H]3CC[C@@H](C2)N3)C[C@]12CCCc1ccccc12 [Compound 84, (7S)-4-[(1R,5S)-3,8-diazabicyclo[3.2.1]octan-3-yl]-2-[[(2R,8S)-2-fluoro-1,2,3,5,6,7-hexahydropyrrolizin-8-yl]methoxy]-6-methyl-spiro[5,8-dihydropyrido[4,3-d]pyrimidine-7,1′-tetralin]] | 1 to 10 | < 10 | –
17 | O=C(c1nn2c(c1Cl)CN(c1nc(OC[C@@]34CCCN3C[C@H](F)C4)nc3c1CO[C@@]1(CCc4c(Cl)cccc41)C3)CCC2)N1CCNCC1 [Compound 49, [3-chloro-5-[(7S)-4′-chloro-2-[[(2R,8S)-2-fluoro-1,2,3,5,6,7-hexahydropyrrolizin-8-yl]methoxy]spiro[5,8-dihydropyrano[4,3-d]pyrimidine-7,1′-indane]-4-yl]-4,6,7,8-tetrahydropyrazolo[1,5-a][1,4]diazepin-2-yl]-piperazin-1-yl-methanone] | 0.1 to 1 | < 10 | –
18 | Oc1ccc2c(c1)C1(CCC2)Cc2nc(OC[C@@]34CCCN3C[C@H](F)C4)nc(N3CCCC(O)CC3)c2CO1 (stereo partly drawn) [Compound 14, 2-[[(2S,8R)-2-fluoro-1,2,3,5,6,7-hexahydropyrrolizin-8-yl]methoxy]-4-(4-hydroxyazepan-1-yl)spiro[5,8-dihydropyrano[4,3-d]pyrimidine-7,4′-tetralin]-6′-ol] | > 10 | 1000 to 20000 | –
19 | OC1CCCN(c2nc(OC[C@@]34CCCN3C[C@H](F)C4)nc3c2COC2(CCCc4ccc(Cl)cc42)C3)CC1 (stereo partly drawn) [Compound 17, 1-(7-chloro-2′-(((2R,7aS)-2-fluorotetrahydro-1H-pyrrolizin-7a(5H)-yl)methoxy)-3,4,5′,8′-tetrahydro-2H-spiro[naphthalene-1,7′-pyrano[4,3-d]pyrimidin]-4′-yl)azepan-4-ol] | 1 to 10 | 1000 to 20000 | –
